PMC11705230, “Discovery and Synthetic Applications of a NAD(P)H-Dependent Reductive Aminase from Rhodococcus erythropolis” (ACS Catalysis, 2024)

Target: T1, RytRedAm (Rhodococcus erythropolis, UniProt Z9GXG8TLZ1)
T1 construct: recombinant, N-terminal His-tag in pET-28a(+), E. coli BL21(DE3); Ni-NTA purified; homodimer; printed residues R35, I69, T90, D166, Y235
T1 sequence (Z9GXG8TLZ1 1-291): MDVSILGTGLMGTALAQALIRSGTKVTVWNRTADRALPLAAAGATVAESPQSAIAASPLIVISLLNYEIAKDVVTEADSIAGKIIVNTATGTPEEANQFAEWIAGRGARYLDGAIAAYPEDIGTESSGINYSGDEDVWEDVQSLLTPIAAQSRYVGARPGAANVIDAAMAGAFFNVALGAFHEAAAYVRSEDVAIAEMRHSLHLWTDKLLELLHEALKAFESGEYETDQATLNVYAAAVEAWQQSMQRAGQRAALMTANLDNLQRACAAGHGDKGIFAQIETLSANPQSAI
Test: X-ray crystallography
Format: binding
Settings: cocrystallized with NADP+, nicotinamide ring and ribose density absent; cofactor site; pH 7.0

Nc1ncnc2c1ncn2[C@@H]1O[C@H](COP(=O)(O)OP(=O)(O)O)[C@@H](O)[C@H]1OP(=O)(O)O [ADP-2RP]
X-ray crystallography: crystals obtained with the latter gave an ADP-2′-ribose phosphate (ADP-2RP) complex
